In series [1] the test system is RB1, BCL2 G4s. As to the kind of experiment: Biophysical measurements of compound affinity, RB1 and BCL2 G4s. It counts as binding.
Series [2] has as its target c-MYC G4 DNA (biotin-labeled Pu22 G-quadruplex). As to the kind of experiment: Surface plasmon resonance (SPR). The conditions noted are these: SPR, 25° C.; read-out: equilibrium dissociation constant (Kd). It counts as binding. Here is the method: In order to quantitatively assess the binding affinity of Compound 1 with the c-MYC G4, surface plasmon resonance (SPR) experiments (De Crescenzo, et al., Cell Mol Bioeng 2008, 1, 204) were performed using a biotinylated c-MYC G4 oligonucleotide. The oligonucleotide was immobilized to a streptavidin-coated chip, and binding was measured as a function of concentration. (FIG. 2). […] Furthermore, Compound 1 interacts with quadruplex DNA through a reversible binding interaction, and rapid, complete dissociation can be observed in the sensogram (FIG. 2C).
SPR experiments were performed with a Biacore T200 (GE Healthcare). […] The c-MYC DNA was then captured (FC2: 1245 Ru) on a Series S Sensor CM5 Chip (GE Healthcare) with amine-coupled Neutravidin (FC1: 4466 Ru, FC2: 5458 Ru). Single Cycle Kinetics (SCK) experiments were carried out with five injections of increasing concentration of analyte solution, which was prepared by a three-fold serial dilution of compound with buffer (10 mM Tris pH 7.5, 100 mM KCl, 3 mM EDTA) containing 3% DMSO. Binding analysis was conducted at a flow rate of 30 μL/min at 25° C. In each run, the association phase and the subsequent dissociation phase were monitored for 1 min and 10 min, respectively. Prior to each compound injection, three buffer injections were made. […]
(In general: Surface plasmon resonance follows binding to a sensor surface in real time, without labels.)

Series [3] deals with KRAS, VEGF G4s. As to the kind of experiment: Biophysical measurements of compound affinity, KRAS and VEGF G4s. Type of series: binding.
The nature of series [4]: Stability study in culture media (LC/MS). It counts as physicochemical. The conditions noted are these: RPMI-1640, LC/MS, up to 72 h. From the text: Having established the reversible binding of Compound 1 to quadruplex DNA and selective quadruplex-dependent silencing of c-Myc, one consideration that remained was the presence of a benzylaminophenol functional group in Compound 1. It has previously been reported that compounds containing this functional group can have the propensity to eject amines, form an o-quinone methide, and alkylate proteins (Weinert, et al., J Am Chem Soc 2006, 128, 11940; Herzig, et al., J Org Chem 2006, 71, 4130; McLean, et al., Bioorg Med Chem Lett 2009, 19, 6717). To assess whether Compound 1 was undergoing this reactivity, a small series of analogs was prepared. In FIG. 6C, compounds lacking the phenol or amino group were prepared and evaluated. […] Additionally, the stability of Compound 1 was evaluated (see FIG. 7). […] Additionally, the putative hydrolysis products arising from quinone methide formation were not observed at any time by LC/MS.
Compound 1 (10 μL of 1 mM DMSO solution) was added to 490 μL RPMI-1640 culture media. After 1 min, 25 h, 48 h, and 72 h, 100 μL of this solution was diluted into 100 μL acetonitrile. The mixture was centrifuged at 5500 rpm for 1 min and the supernatant was removed from the pellet. […]
Compound 1 (10 μL of 1 mM DMSO solution) was added to 490 μL RPMI-1640 culture media. […] The mass corresponding to Compound 1 (M+H^+=393) was extracted and the chromatogram evaluated. […]

The test system of series [5] is L363 cells. As to the kind of experiment: Cell cycle analysis (propidium iodide staining). The note with it: 10 μM, after 72 hours. It counts as cell-based, human. How it is done:
To further explore the mechanism of action for the anticancer activity of Compound 1, cell cycle analysis was performed and monitored for potential induction of apoptotic death. […] Additionally, minimal increases in apoptosis were observed, by Annexin V/7-AAD staining and FACS analysis; only 13% of the cells were undergoing apoptosis (FIG. 5B).

Series [6] concerns c-MYC expression in L363 xenograft tumors. As to the kind of experiment: Pharmacodynamic evaluation in L363 subcutaneous xenografts (western blot). It counts as in vivo. The conditions noted are these: single dose 19 mg/kg or 38 mg/kg IP; tumors harvested 2 and 8 hours; nude mice with L363 xenografts. How it is done:
The capacity of Compound 23 to inhibit c-MYC expression in tumor was evaluated in nude mice bearing subcutaneous xenografts of the human multiple myeloma cell line L363. In this assay, tumors from two tumor-bearing mice were harvested 2 and 8 hours after a single dose of Compound 23 at 19 mg/kg or 38 mg/kg (administered IP).
On the technique in general: In western blotting, separated proteins are transferred to a membrane and probed.

The test system of series [7] is KMM1. As to the kind of experiment: Multiple myeloma cell viability. It counts as cell-based. The conditions noted are these: KMM-1. How it is done:
(§1) Human multiple myeloma and Burkitt's Lymphoma cell lines L363, CA46, MM-1R, KMS-11, and MM-1S were cultured and authenticated as previously described (Simmons, et al., Molecular oncology 2014, 8, 261). All plasma derived cell lines were cultured in RPMI-1640 (2 mM L-glutamine, 10% fetal bovine serum (FBS), 100 U/ml penicillin, 100 μg/ml streptomycin: Gibco) and incubated at 37° C. with 5% CO2. Viability experiments were performed in quadruplicate on 96-well plates (Costar) at designated time and dose points. MTS reagent was then directly added, incubated at 37° C. for 90 min, and absorbance of MTS formazan was read at 500 nm on an Omega 640 spectrophotometer. Percentage cell viability was normalized to the absorbance of untreated (DMSO) wells. In the case of cells harvested for their protein or RNA, pellets were flash frozen and stored at −80° C. overnight prior to use.
(§2) Additional multiple myeloma cell lines were assayed for cell viability in the presence of Compound 23, and the following IC50 values were determined.

The subject of series [8] is ARD. As to the kind of experiment: Multiple myeloma cell viability. Type of series: cell-based. Here is the method:
as §1, §2

Series [9] concerns KMS12PE. As to the kind of experiment: Multiple myeloma cell viability. Type of series: cell-based. The conditions noted are these: Homo sapiens, KMS-12-PE. Here is the method:
as §1, §2

The test system of series [10] is AMO1. As to the kind of experiment: Multiple myeloma cell viability. The conditions noted are these: Homo sapiens. Type of series: cell-based. How it is done:
as §1, §2

Series [11] has as its system KMS27. As to the kind of experiment: Multiple myeloma cell viability. The conditions noted are these: KMS-27. Type of series: cell-based. Here is the method: as §1, §2
Series [12] has as its system JIM1. As to the kind of experiment: Multiple myeloma cell viability. Type of series: cell-based. How it is done:
as §1, §2

The structures appear in SMILES notation.

As usually defined, the Kd is the concentration at which binding is half-saturated. Consider `Cc1ccc(NC(=O)c2c(C)oc3ccc(O)c(CN4CCCCCC4)c23)cc1` [Compound 1], for which, in series [1], the “G4 binding relative to MYC” value was “weaker binding”. In addition, the Kd in series [2] was determined as 4.5 ± 1.4 µM. In [3], the G4 binding entry was “complete lack of G4 binding”. Besides, the “stability in culture media” value in series [4] is on record as “persisted in culture media over a period of 72 h”. Further, the “treated cells arrested in the G1 phase” value in series [5] is about 85%.
Usually IC50 stands for the point on the concentration scale where inhibition reaches its midpoint. Low readings indicate greater potency in that assay, high ones weaker potency in that assay. Take `Cc1oc2ccc(O)c(CN3CCCCCC3)c2c1C(=O)Nc1ccc(C(F)(F)F)cc1` [Compound 23]: the “c-MYC expression levels in tumors compared to vehicle control tumors” value in series [6] is reported as “decreased c-MYC expression levels”. Besides, the IC50 in series [7] is 4.13 µM; in [8] it was 5.75 µM; in series [9], 5.33 µM; in [10], 5.92 µM; in series [11] it was 5.06 µM; in series [12], 6.35 µM.

The values are drawn from patent publication US11014902B2, “MYC G-quadruplex stabilizing small molecules and their use” (The United States of America, as represented by the …, priority 2015, dated 2021).
